Test system: 521955-158-R7-J2-PDC spheroids, viability % test/control
Assay: Anticancer human tumor 521955-158-R7-J2-PDC patient-derived pancreatic carcinoma cell line growth inhibition [TAK]
Details: spheroids with HUVEC and MSC; for IC50: curve of first compound; for viability, T/C: stronger effect = lower value; active = viability on the fitted dose curve at most 10% of control; inactive = the rest
In short: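 Spheroids of 60% malignant cells, 25% HUVEC and 15% hMSC were exposed to targeted agents combined with TAK-243 or ipatasertib. Concentrations started at or near clinical Cmax (10 microM if unknown) and descended in half-log steps.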
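Also: spheroids exposed to compound for 7 days before readout.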
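For viability, T/C in this document: 100% = DMSO vehicle control wells.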

COC1CC2CCC(C)C(O)(O2)C(=O)C(=O)N2CCCCC2C(=O)OC(C(C)CC2CCC(OCCO)C(OC)C2)CC(=O)C(C)C=C(C)C(O)C(OC)C(=O)C(C)CC(C)C=CC=CC=C1C (stereo not given) + CC(C)NCC(C(=O)N1CCN(c2ncnc3c2C(C)CC3O)CC1)c1ccc(Cl)cc1
inactive: viability, T/C (second compound 0.3 µM, first compound 0.000316 µM) 103% | viability, T/C (second compound 0.3 µM, first compound 0.001 µM) 72.1% | viability, T/C (second compound 0.3 µM, first compound 0.00316 µM) 71.6% | viability, T/C (second compound 0.3 µM, first compound 0.01 µM) 102% | viability, T/C (second compound 0.3 µM, first compound 0.0316 µM) 110% | viability, T/C (second compound 0.3 µM, first compound 0.1 µM) 115% | viability, T/C (second compound 0.949 µM, first compound 0.000316 µM) 81.6% | viability, T/C (second compound 0.949 µM, first compound 0.001 µM) 73.5% | viability, T/C (second compound 0.949 µM, first compound 0.00316 µM) 100% | viability, T/C (second compound 0.949 µM, first compound 0.01 µM) 91% | viability, T/C (second compound 0.949 µM, first compound 0.0316 µM) 111% | viability, T/C (second compound 0.949 µM, first compound 0.1 µM) 85.9% | viability, T/C (second compound 3 µM, first compound 0.000316 µM) 84.7% | viability, T/C (second compound 3 µM, first compound 0.001 µM) 89.1% | viability, T/C (second compound 3 µM, first compound 0.00316 µM) 74.7% | viability, T/C (second compound 3 µM, first compound 0.01 µM) 89.5% | viability, T/C (second compound 3 µM, first compound 0.0316 µM) 104% | viability, T/C (second compound 3 µM, first compound 0.1 µM) 93.7% | viability, T/C (second compound 9.49 µM, first compound 0.000316 µM) 86.2% | viability, T/C (second compound 9.49 µM, first compound 0.001 µM) 86.3% | viability, T/C (second compound 9.49 µM, first compound 0.00316 µM) 82.2% | viability, T/C (second compound 9.49 µM, first compound 0.01 µM) 85.8% | viability, T/C (second compound 9.49 µM, first compound 0.0316 µM) 106% | viability, T/C (second compound 9.49 µM, first compound 0.1 µM) 105% | viability, T/C (second compound 30 µM, first compound 0.000316 µM) 90.3% | viability, T/C (second compound 30 µM, first compound 0.001 µM) 108% | viability, T/C (second compound 30 µM, first compound 0.00316 µM) 98.2% | viability, T/C (second compound 30 µM, first compound 0.01 µM) 106% | viability, T/C (second compound 30 µM, first compound 0.0316 µM) 104% | viability, T/C (second compound 30 µM, first compound 0.1 µM) 116%
> 100 nM: IC50 (second compound 0.3 µM) | IC50 (second compound 0.949 µM) | IC50 (second compound 3 µM) | IC50 (second compound 9.49 µM) | IC50 (second compound 30 µM)
